Experimental data from patent US8247211B2, “Glycopeptide antibiotics” (American Cyanamid Company, priority 2001, dated 2012).
≈ marks a conversion by molar mass, not a printed value.

Experiments:
Assay in all cases: In vitro antibacterial evaluation: minimum inhibitory concentration (MIC), broth dilution method
Assay type in all cases: cell-based
Staphylococcus sp. = conditions: for MIC Staphylococcus aureus (ATCC 29213): strain ATCC 29213; for MIC Staphylococcus aureus (GC 1131): strain GC 1131; for MIC Staphylococcus aureus (GC 3051): strain GC 3051; for MIC Staphylococcus aureus (GC 3053): strain GC 3053; for MIC Staphylococcus aureus (GC 4541): strain GC 4541; for MIC Staphylococcus aureus (GC 4542): strain GC 4542; for MIC Staphylococcus aureus (GC 4544): strain GC 4544; for MIC Staphylococcus aureus (GC 4545): strain GC 4545
Summary of the method: (§1)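 Test strains, among them recent clinical isolates carrying methicillin, penicillin and/or vancomycin resistance, were inoculated at 5×10^5 CFU/mL. A broth dilution series spanning 64-0.06 μg/mL in Muller-Hinton II […] (NCCLS M7-A2) defined the MIC as the lowest growth-inhibiting concentration.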

Escherichia coli = conditions: 5×10^5 CFU/mL, 18 hours at 35° C.
Summary of the method: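 Values are minimum inhibitory concentrations, meaning the smallest antibiotic concentration that stops growth of the organism. They come from broth dilution in Muller-Hinton II […] per NCCLS guidance (M7-A2), using 5×10^5 CFU/mL and concentrations from 64 to 0.06 μg/mL.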

Streptococcus sp. = conditions: broth dilution, 5×10^5 CFU/mL, 18 hours at 35° C.
Summary of the method: as §1

Enterococcus sp. = conditions: broth dilution, 5×10^5 CFU/mL, 18 hours at 35° C.
Summary of the method: as §1

[1] = broth dilution, 5×10^5 CFU/mL, 18 hours at 35° C.
[2] = broth dilution, 18 hours at 35° C.

COC1CCC2(C)C(CCC3C2CCC2(C)C(C(C)CCC4OCC5OC(OC6C(CO)OC(Oc7ccc(CC8NC(=O)C(C(C)c9ccccc9)NC(=O)CNC(=O)C(CO)NC(=O)C(C(O)C9CNC(=N)N9C9OC(CO)C(O)C(O)C9O)NC(=O)C(C(O)C9CNC(=N)N9)NC8=O)cc7)C(O)C6O)C(O)C(O)C5O4)CCC32)C1 (stereo not drawn) [Example 130, Cyclo[glycyl-β-methylphenylalanyl-O-[4-O-[4,6-O-(3-methoxycholan-24-ylidene)hexopyranosyl]hexopyranosyl]tyrosyl-3-(2-iminoimidazolidin-4-yl)seryl-3-(3-hexopyranosyl-2-iminoimidazolidin-4-yl)serylseryl]]
MIC Coagulase Negative Staphylococcus (GC 4547) (Staphylococcus sp.; [1]): 32 µg/mL (≈ 19.4 µM)
MIC Coagulase Negative Staphylococcus (GC 4548) (Staphylococcus sp.; [1]): 32 µg/mL (≈ 19.4 µM)
MIC Coagulase Negative Staphylococcus (GC 4549) (Staphylococcus sp.; [1]): 16 µg/mL (≈ 9.69 µM)
MIC Coagulase Negative Staphylococcus (GC 4551) (Staphylococcus sp.; [1]): 32 µg/mL (≈ 19.4 µM)
MIC Coagulase Negative Staphylococcus (GC 6257) (Staphylococcus sp.; [1]): 32 µg/mL (≈ 19.4 µM)
MIC Staphylococcus aureus-SMITH (GC 4543) (Staphylococcus sp.; [1]): 32 µg/mL (≈ 19.4 µM)
MIC Staphylococcus haemolyticus (GC 4546) (Staphylococcus sp.; [1]): 32 µg/mL (≈ 19.4 µM)
MIC Staphylococcus aureus (ATCC 29213) (Staphylococcus sp.): 32 µg/mL (≈ 19.4 µM)
MIC Staphylococcus aureus (ATCC 29213) (Staphylococcus sp.; [2]): 32 µg/mL (≈ 19.4 µM)
MIC Staphylococcus aureus (GC 1131) (Staphylococcus sp.): 32 µg/mL (≈ 19.4 µM)
MIC Staphylococcus aureus (GC 1131) (Staphylococcus sp.; [2]): 32 µg/mL (≈ 19.4 µM)
MIC Staphylococcus aureus (GC 3051) (Staphylococcus sp.): 32 µg/mL (≈ 19.4 µM)
MIC Staphylococcus aureus (GC 3051) (Staphylococcus sp.; [2]): 32 µg/mL (≈ 19.4 µM)
MIC Staphylococcus aureus (GC 3053) (Staphylococcus sp.): 32 µg/mL (≈ 19.4 µM)
MIC Staphylococcus aureus (GC 3053) (Staphylococcus sp.; [2]): 32 µg/mL (≈ 19.4 µM)
MIC Staphylococcus aureus (GC 4541) (Staphylococcus sp.): 32 µg/mL (≈ 19.4 µM)
MIC Staphylococcus aureus (GC 4541) (Staphylococcus sp.; [2]): 32 µg/mL (≈ 19.4 µM)
MIC Staphylococcus aureus (GC 4542) (Staphylococcus sp.): 32 µg/mL (≈ 19.4 µM)
MIC Staphylococcus aureus (GC 4542) (Staphylococcus sp.; [2]): 32 µg/mL (≈ 19.4 µM)
MIC Staphylococcus aureus-SMITH (GC 4543) (Staphylococcus sp.; strain GC 4543, broth dilution, 18 hours at 35° C.): 32 µg/mL (≈ 19.4 µM)
MIC Staphylococcus aureus (GC 4544) (Staphylococcus sp.): 32 µg/mL (≈ 19.4 µM)
MIC Staphylococcus aureus (GC 4544) (Staphylococcus sp.; [2]): 32 µg/mL (≈ 19.4 µM)
MIC Staphylococcus aureus (GC 4545) (Staphylococcus sp.): 32 µg/mL (≈ 19.4 µM)
MIC Staphylococcus aureus (GC 4545) (Staphylococcus sp.; [2]): 32 µg/mL (≈ 19.4 µM)
MIC Staphylococcus haemolyticus (GC 4546) (Staphylococcus sp.; strain GC 4546, broth dilution, 18 hours at 35° C.): 32 µg/mL (≈ 19.4 µM)
MIC Coagulase Negative Staphylococcus (GC 4547) (Staphylococcus sp.; strain GC 4547, broth dilution, 18 hours at 35° C.): 32 µg/mL (≈ 19.4 µM)
MIC Coagulase Negative Staphylococcus (GC 4548) (Staphylococcus sp.; strain GC 4548, broth dilution, 18 hours at 35° C.): 32 µg/mL (≈ 19.4 µM)
MIC Coagulase Negative Staphylococcus (GC 4549) (Staphylococcus sp.; strain GC 4549, broth dilution, 18 hours at 35° C.): 16 µg/mL (≈ 9.69 µM)
MIC Coagulase Negative Staphylococcus (GC 4551) (Staphylococcus sp.; strain GC 4551, broth dilution, 18 hours at 35° C.): 32 µg/mL (≈ 19.4 µM)
MIC Coagulase Negative Staphylococcus (GC 6257) (Staphylococcus sp.; strain GC 6257, broth dilution, 18 hours at 35° C.): 32 µg/mL (≈ 19.4 µM)
MIC Escherichia coli (ATCC 25922) (Escherichia coli): >64 µg/mL
MIC Escherichia coli (GC 4559) (Escherichia coli): >64 µg/mL
MIC Escherichia coli (GC 4560) (Escherichia coli): 64 µg/mL (≈ 38.7 µM)
MIC Streptococcus agalactiae (GC 4564) (Streptococcus sp.): 8 µg/mL (≈ 4.84 µM)
MIC Streptococcus pneumoniae (GC 1894) (Streptococcus sp.): 1 µg/mL (≈ 0.605 µM)
MIC Streptococcus pneumoniae (GC 4565) (Streptococcus sp.): 4 µg/mL (≈ 2.42 µM)
MIC Streptococcus pneumonine (ATCC 6301) (Streptococcus sp.): 8 µg/mL (≈ 4.84 µM)
MIC Streptococcus pyogenes (GC 4563) (Streptococcus sp.): 16 µg/mL (≈ 9.69 µM)
MIC Enterococccus avium (GC 4558) (Enterococcus sp.): 16 µg/mL (≈ 9.69 µM)
MIC Enterococccus faecalis (ATCC 29212) (Enterococcus sp.): 32 µg/mL (≈ 19.4 µM)
MIC Enterococccus faecalis (GC 2691) (Enterococcus sp.): 32 µg/mL (≈ 19.4 µM)
MIC Enterococccus faecalis (GC 3059) (Enterococcus sp.): 64 µg/mL (≈ 38.7 µM)
MIC Enterococccus faecalis (GC 4552) (Enterococcus sp.): 32 µg/mL (≈ 19.4 µM)
MIC Enterococccus faecalis (GC 4553) (Enterococcus sp.): 8 µg/mL (≈ 4.84 µM)
MIC Enterococccus faecalis (GC 4554) (Enterococcus sp.): 32 µg/mL (≈ 19.4 µM)
MIC Enterococccus faecalis (GC 6189) (Enterococcus sp.): 32 µg/mL (≈ 19.4 µM)
MIC Enterococccus faecium (GC 2243) (Enterococcus sp.): 8 µg/mL (≈ 4.84 µM)
MIC Enterococccus faecium (GC 4556) (Enterococcus sp.): 64 µg/mL (≈ 38.7 µM)
MIC Enterococccus faecium (GC 4557) (Enterococcus sp.): 32 µg/mL (≈ 19.4 µM)
MIC Enterococcus faecalis (GC 2242) (Enterococcus sp.): 32 µg/mL (≈ 19.4 µM)
